Measured values as given in the NIST ThermoML archive (doi:10.1016/j.fluid.2006.03.015).
± gives the expanded uncertainty stated by the source.

Experiment: molar heat capacity at constant pressure
Settings: 101.33 kPa, Liquid
[1] = 328.15 K, modulated-temperature differential scanning calorimetry MDSC
[2] = 330.15 K, Small sample (50 mg) DSC
[3] = 333.15 K, modulated-temperature differential scanning calorimetry MDSC
[4] = 335.15 K, Small sample (50 mg) DSC
[5] = 338.15 K, modulated-temperature differential scanning calorimetry MDSC
[6] = 340.15 K, Small sample (50 mg) DSC
[7] = 343.15 K, modulated-temperature differential scanning calorimetry MDSC
[8] = 345.15 K, Small sample (50 mg) DSC
[9] = 348.15 K, modulated-temperature differential scanning calorimetry MDSC
[10] = 350.15 K, Small sample (50 mg) DSC
[11] = 353.15 K, modulated-temperature differential scanning calorimetry MDSC
[12] = 355.15 K, Small sample (50 mg) DSC
[13] = 358.15 K, modulated-temperature differential scanning calorimetry MDSC
[14] = 360.15 K, Small sample (50 mg) DSC
[15] = 363.15 K, modulated-temperature differential scanning calorimetry MDSC
[16] = 365.15 K, Small sample (50 mg) DSC
[17] = 368.15 K, modulated-temperature differential scanning calorimetry MDSC
[18] = 370.15 K, Small sample (50 mg) DSC
[19] = 373.15 K, modulated-temperature differential scanning calorimetry MDSC
[20] = 375.15 K, Small sample (50 mg) DSC
[21] = 378.13 K, Large sample (1 g) DSC
[22] = 378.15 K, modulated-temperature differential scanning calorimetry MDSC
[23] = 380.15 K, Small sample (50 mg) DSC
[24] = 383.15 K, modulated-temperature differential scanning calorimetry MDSC
[25] = 385.15 K, Small sample (50 mg) DSC
[26] = 388.15 K, modulated-temperature differential scanning calorimetry MDSC
[27] = 390.15 K, Small sample (50 mg) DSC
[28] = 393.14 K, Large sample (1 g) DSC
[29] = 393.15 K, modulated-temperature differential scanning calorimetry MDSC
[30] = 395.15 K, Small sample (50 mg) DSC
[31] = 398.15 K, modulated-temperature differential scanning calorimetry MDSC
[32] = 400.15 K, Small sample (50 mg) DSC
[33] = 403.15 K, modulated-temperature differential scanning calorimetry MDSC
[34] = 405.15 K, Small sample (50 mg) DSC
[35] = 408.15 K, modulated-temperature differential scanning calorimetry MDSC
[36] = 410.15 K, Small sample (50 mg) DSC
[37] = 413.15 K, modulated-temperature differential scanning calorimetry MDSC
[38] = 415.15 K, Small sample (50 mg) DSC
[39] = 420.15 K, Small sample (50 mg) DSC
[40] = 425.15 K, Small sample (50 mg) DSC

## CCCC[n+]1ccccc1.O=S(=O)([N-]S(=O)(=O)C(F)(F)F)C(F)(F)F [1-butylpyridinium bis[(trifluoromethyl)sulfonyl]imide]
323.18 K, Large sample (1 g) DSC
  molar heat capacity at constant pressure: 592 ± 31 J/K/mol
[1]
  molar heat capacity at constant pressure: 604 ± 30 J/K/mol
328.18 K, Large sample (1 g) DSC
  molar heat capacity at constant pressure: 595 ± 31 J/K/mol
[2]
  molar heat capacity at constant pressure: 587 ± 31 J/K/mol
333.13 K, Large sample (1 g) DSC
  molar heat capacity at constant pressure: 596 ± 31 J/K/mol
[3]
  molar heat capacity at constant pressure: 607 ± 30 J/K/mol
[4]
  molar heat capacity at constant pressure: 590 ± 31 J/K/mol
338.14 K, Large sample (1 g) DSC
  molar heat capacity at constant pressure: 600 ± 31 J/K/mol
[5]
  molar heat capacity at constant pressure: 610 ± 31 J/K/mol
[6]
  molar heat capacity at constant pressure: 594 ± 31 J/K/mol
[7]
  molar heat capacity at constant pressure: 610 ± 31 J/K/mol
343.16 K, Large sample (1 g) DSC
  molar heat capacity at constant pressure: 603 ± 31 J/K/mol
[8]
  molar heat capacity at constant pressure: 596 ± 31 J/K/mol
348.12 K, Large sample (1 g) DSC
  molar heat capacity at constant pressure: 603 ± 31 J/K/mol
[9]
  molar heat capacity at constant pressure: 616 ± 31 J/K/mol
[10]
  molar heat capacity at constant pressure: 600 ± 31 J/K/mol
353.14 K, Large sample (1 g) DSC
  molar heat capacity at constant pressure: 604 ± 31 J/K/mol
[11]
  molar heat capacity at constant pressure: 615 ± 31 J/K/mol
[12]
  molar heat capacity at constant pressure: 603 ± 31 J/K/mol
358.15 K, Large sample (1 g) DSC
  molar heat capacity at constant pressure: 609 ± 32 J/K/mol
[13]
  molar heat capacity at constant pressure: 621 ± 31 J/K/mol
[14]
  molar heat capacity at constant pressure: 605 ± 31 J/K/mol
[15]
  molar heat capacity at constant pressure: 624 ± 31 J/K/mol
363.17 K, Large sample (1 g) DSC
  molar heat capacity at constant pressure: 614 ± 32 J/K/mol
[16]
  molar heat capacity at constant pressure: 607 ± 32 J/K/mol
[17]
  molar heat capacity at constant pressure: 623 ± 31 J/K/mol
368.17 K, Large sample (1 g) DSC
  molar heat capacity at constant pressure: 617 ± 32 J/K/mol
[18]
  molar heat capacity at constant pressure: 610 ± 32 J/K/mol
[19]
  molar heat capacity at constant pressure: 628 ± 31 J/K/mol
373.16 K, Large sample (1 g) DSC
  molar heat capacity at constant pressure: 617 ± 32 J/K/mol
[20]
  molar heat capacity at constant pressure: 613 ± 32 J/K/mol
[21]
  molar heat capacity at constant pressure: 618 ± 32 J/K/mol
[22]
  molar heat capacity at constant pressure: 628 ± 31 J/K/mol
[23]
  molar heat capacity at constant pressure: 616 ± 32 J/K/mol
383.14 K, Large sample (1 g) DSC
  molar heat capacity at constant pressure: 621 ± 32 J/K/mol
[24]
  molar heat capacity at constant pressure: 631 ± 32 J/K/mol
[25]
  molar heat capacity at constant pressure: 619 ± 32 J/K/mol
388.14 K, Large sample (1 g) DSC
  molar heat capacity at constant pressure: 623 ± 32 J/K/mol
[26]
  molar heat capacity at constant pressure: 635 ± 32 J/K/mol
[27]
  molar heat capacity at constant pressure: 622 ± 32 J/K/mol
[28]
  molar heat capacity at constant pressure: 626 ± 33 J/K/mol
[29]
  molar heat capacity at constant pressure: 636 ± 32 J/K/mol
[30]
  molar heat capacity at constant pressure: 624 ± 32 J/K/mol
398.13 K, Large sample (1 g) DSC
  molar heat capacity at constant pressure: 630 ± 33 J/K/mol
[31]
  molar heat capacity at constant pressure: 636 ± 32 J/K/mol
[32]
  molar heat capacity at constant pressure: 627 ± 33 J/K/mol
[33]
  molar heat capacity at constant pressure: 640 ± 32 J/K/mol
403.17 K, Large sample (1 g) DSC
  molar heat capacity at constant pressure: 631 ± 33 J/K/mol
[34]
  molar heat capacity at constant pressure: 630 ± 33 J/K/mol
408.14 K, Large sample (1 g) DSC
  molar heat capacity at constant pressure: 632 ± 33 J/K/mol
[35]
  molar heat capacity at constant pressure: 642 ± 32 J/K/mol
[36]
  molar heat capacity at constant pressure: 633 ± 33 J/K/mol
[37]
  molar heat capacity at constant pressure: 644 ± 32 J/K/mol
413.16 K, Large sample (1 g) DSC
  molar heat capacity at constant pressure: 633 ± 33 J/K/mol
[38]
  molar heat capacity at constant pressure: 635 ± 33 J/K/mol
418.13 K, Large sample (1 g) DSC
  molar heat capacity at constant pressure: 636 ± 33 J/K/mol
418.15 K, modulated-temperature differential scanning calorimetry MDSC
  molar heat capacity at constant pressure: 645 ± 32 J/K/mol
[39]
  molar heat capacity at constant pressure: 639 ± 33 J/K/mol
423.15 K, Large sample (1 g) DSC
  molar heat capacity at constant pressure: 635 ± 33 J/K/mol
[40]
  molar heat capacity at constant pressure: 641 ± 33 J/K/mol

## CCn1cc[n+](C)c1.O=S(=O)([O-])C(F)(F)F [1-ethyl-3-methylimidazolium trifluoromethanesulfonate]
313.13 K, Large sample (1 g) DSC
  molar heat capacity at constant pressure: 384 ± 20 J/K/mol
315.15 K, Small sample (50 mg) DSC
  molar heat capacity at constant pressure: 386 ± 20 J/K/mol
318.13 K, Large sample (1 g) DSC
  molar heat capacity at constant pressure: 385 ± 20 J/K/mol
320.15 K, Small sample (50 mg) DSC
  molar heat capacity at constant pressure: 388 ± 20 J/K/mol
323.12 K, Large sample (1 g) DSC
  molar heat capacity at constant pressure: 386 ± 20 J/K/mol
325.15 K, Small sample (50 mg) DSC
  molar heat capacity at constant pressure: 390 ± 20 J/K/mol
[1]
  molar heat capacity at constant pressure: 392 ± 20 J/K/mol
328.16 K, Large sample (1 g) DSC
  molar heat capacity at constant pressure: 384 ± 20 J/K/mol
[2]
  molar heat capacity at constant pressure: 392 ± 20 J/K/mol
333.14 K, Large sample (1 g) DSC
  molar heat capacity at constant pressure: 383 ± 20 J/K/mol
[3]
  molar heat capacity at constant pressure: 395 ± 20 J/K/mol
[4]
  molar heat capacity at constant pressure: 394 ± 20 J/K/mol
[5]
  molar heat capacity at constant pressure: 397 ± 20 J/K/mol
338.17 K, Large sample (1 g) DSC
  molar heat capacity at constant pressure: 387 ± 20 J/K/mol
[6]
  molar heat capacity at constant pressure: 395 ± 21 J/K/mol
[7]
  molar heat capacity at constant pressure: 398 ± 20 J/K/mol
343.17 K, Large sample (1 g) DSC
  molar heat capacity at constant pressure: 391 ± 20 J/K/mol
[8]
  molar heat capacity at constant pressure: 396 ± 21 J/K/mol
348.13 K, Large sample (1 g) DSC
  molar heat capacity at constant pressure: 392 ± 20 J/K/mol
[9]
  molar heat capacity at constant pressure: 400 ± 20 J/K/mol
[10]
  molar heat capacity at constant pressure: 397 ± 21 J/K/mol
[11]
  molar heat capacity at constant pressure: 402 ± 20 J/K/mol
353.16 K, Large sample (1 g) DSC
  molar heat capacity at constant pressure: 393 ± 20 J/K/mol
[12]
  molar heat capacity at constant pressure: 399 ± 21 J/K/mol
358.12 K, Large sample (1 g) DSC
  molar heat capacity at constant pressure: 395 ± 21 J/K/mol
[13]
  molar heat capacity at constant pressure: 404 ± 20 J/K/mol
[14]
  molar heat capacity at constant pressure: 401 ± 21 J/K/mol
363.14 K, Large sample (1 g) DSC
  molar heat capacity at constant pressure: 398 ± 21 J/K/mol
[15]
  molar heat capacity at constant pressure: 405 ± 20 J/K/mol
[16]
  molar heat capacity at constant pressure: 403 ± 21 J/K/mol
368.14 K, Large sample (1 g) DSC
  molar heat capacity at constant pressure: 400 ± 21 J/K/mol
[17]
  molar heat capacity at constant pressure: 408 ± 20 J/K/mol
[18]
  molar heat capacity at constant pressure: 405 ± 21 J/K/mol
373.14 K, Large sample (1 g) DSC
  molar heat capacity at constant pressure: 401 ± 21 J/K/mol
[19]
  molar heat capacity at constant pressure: 409 ± 20 J/K/mol
[20]
  molar heat capacity at constant pressure: 406 ± 21 J/K/mol
[21]
  molar heat capacity at constant pressure: 402 ± 21 J/K/mol
[22]
  molar heat capacity at constant pressure: 411 ± 21 J/K/mol
[23]
  molar heat capacity at constant pressure: 409 ± 21 J/K/mol
[24]
  molar heat capacity at constant pressure: 412 ± 21 J/K/mol
383.17 K, Large sample (1 g) DSC
  molar heat capacity at constant pressure: 405 ± 21 J/K/mol
[25]
  molar heat capacity at constant pressure: 410 ± 21 J/K/mol
388.15 K, Large sample (1 g) DSC
  molar heat capacity at constant pressure: 407 ± 21 J/K/mol
[26]
  molar heat capacity at constant pressure: 414 ± 21 J/K/mol
[27]
  molar heat capacity at constant pressure: 412 ± 21 J/K/mol
[28]
  molar heat capacity at constant pressure: 410 ± 21 J/K/mol
[29]
  molar heat capacity at constant pressure: 416 ± 21 J/K/mol
[30]
  molar heat capacity at constant pressure: 414 ± 22 J/K/mol
[31]
  molar heat capacity at constant pressure: 416 ± 21 J/K/mol
398.17 K, Large sample (1 g) DSC
  molar heat capacity at constant pressure: 411 ± 21 J/K/mol
[32]
  molar heat capacity at constant pressure: 416 ± 22 J/K/mol
403.15 K, Large sample (1 g) DSC
  molar heat capacity at constant pressure: 414 ± 22 J/K/mol
[33]
  molar heat capacity at constant pressure: 418 ± 21 J/K/mol
[34]
  molar heat capacity at constant pressure: 418 ± 22 J/K/mol
408.12 K, Large sample (1 g) DSC
  molar heat capacity at constant pressure: 416 ± 22 J/K/mol
[35]
  molar heat capacity at constant pressure: 419 ± 21 J/K/mol
[36]
  molar heat capacity at constant pressure: 420 ± 22 J/K/mol
413.15 K, Large sample (1 g) DSC
  molar heat capacity at constant pressure: 419 ± 22 J/K/mol
[37]
  molar heat capacity at constant pressure: 421 ± 21 J/K/mol
[38]
  molar heat capacity at constant pressure: 422 ± 22 J/K/mol
418.17 K, Large sample (1 g) DSC
  molar heat capacity at constant pressure: 421 ± 22 J/K/mol
[39]
  molar heat capacity at constant pressure: 424 ± 22 J/K/mol
423.14 K, Large sample (1 g) DSC
  molar heat capacity at constant pressure: 422 ± 22 J/K/mol
[40]
  molar heat capacity at constant pressure: 425 ± 22 J/K/mol
